According to ChEMBL document CHEMBL1909046, “DrugMatrix in vitro pharmacology data”:

Experiments:
[1] = target: T1, Type-2 angiotensin II receptor (Homo sapiens, UniProt P50052); experiment: biochemical; format: cell-based, CHO-K1; details: cho-k1; further: in other assays of this panel Not Active means under 50% inhibition at 10 µM
T1 sequence (P50052 whole entry): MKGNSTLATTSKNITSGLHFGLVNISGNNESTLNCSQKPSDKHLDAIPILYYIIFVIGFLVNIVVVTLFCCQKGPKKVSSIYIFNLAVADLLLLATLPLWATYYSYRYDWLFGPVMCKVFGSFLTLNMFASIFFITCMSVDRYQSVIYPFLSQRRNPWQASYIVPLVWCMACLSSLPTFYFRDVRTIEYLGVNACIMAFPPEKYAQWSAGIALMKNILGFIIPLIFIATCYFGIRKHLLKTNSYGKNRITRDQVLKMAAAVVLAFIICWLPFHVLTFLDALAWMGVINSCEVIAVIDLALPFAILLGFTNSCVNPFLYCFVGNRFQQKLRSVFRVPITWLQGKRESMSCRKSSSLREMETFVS

[2] = target: C-C chemokine receptor type 2 (Homo sapiens, UniProt P41597); format: cell membranes, Membrane; details: cho-k1; further: in other assays of this panel Not Active means under 50% inhibition at 10 µM
C-C chemokine receptor type 2, sequence (P41597 whole entry): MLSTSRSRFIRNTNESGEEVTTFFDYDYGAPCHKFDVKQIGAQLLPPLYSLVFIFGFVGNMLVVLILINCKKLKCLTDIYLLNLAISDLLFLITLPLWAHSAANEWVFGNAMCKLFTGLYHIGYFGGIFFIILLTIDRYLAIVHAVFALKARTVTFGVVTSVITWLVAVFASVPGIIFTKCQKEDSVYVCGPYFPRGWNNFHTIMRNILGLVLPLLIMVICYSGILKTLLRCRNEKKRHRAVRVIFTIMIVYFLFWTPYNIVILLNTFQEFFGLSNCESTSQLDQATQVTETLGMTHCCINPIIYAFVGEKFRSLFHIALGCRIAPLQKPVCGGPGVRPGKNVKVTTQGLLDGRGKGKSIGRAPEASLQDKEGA

[3] = target: T2, C-X-C chemokine receptor type 1 (Homo sapiens, UniProt P25024); further: in other assays of this panel Not Active means under 50% inhibition at 10 µM
T2 sequence (P25024 whole entry): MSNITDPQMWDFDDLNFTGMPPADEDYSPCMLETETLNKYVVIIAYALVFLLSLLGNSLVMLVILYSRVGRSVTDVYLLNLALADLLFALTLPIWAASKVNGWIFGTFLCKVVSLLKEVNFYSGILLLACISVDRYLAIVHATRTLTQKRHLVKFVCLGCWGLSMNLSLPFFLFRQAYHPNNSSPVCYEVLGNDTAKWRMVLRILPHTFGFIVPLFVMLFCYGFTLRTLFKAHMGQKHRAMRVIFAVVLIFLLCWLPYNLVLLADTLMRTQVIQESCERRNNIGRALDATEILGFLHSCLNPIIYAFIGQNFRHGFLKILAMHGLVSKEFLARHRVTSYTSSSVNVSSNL

[4] = target: Insulin receptor (Rattus norvegicus, UniProt P15127); format: cell membranes, Wistar, Liver, Membrane; further: in other assays of this panel Not Active means under 50% inhibition at 10 µM
Insulin receptor, sequence (P15127 27-759 limits assumed): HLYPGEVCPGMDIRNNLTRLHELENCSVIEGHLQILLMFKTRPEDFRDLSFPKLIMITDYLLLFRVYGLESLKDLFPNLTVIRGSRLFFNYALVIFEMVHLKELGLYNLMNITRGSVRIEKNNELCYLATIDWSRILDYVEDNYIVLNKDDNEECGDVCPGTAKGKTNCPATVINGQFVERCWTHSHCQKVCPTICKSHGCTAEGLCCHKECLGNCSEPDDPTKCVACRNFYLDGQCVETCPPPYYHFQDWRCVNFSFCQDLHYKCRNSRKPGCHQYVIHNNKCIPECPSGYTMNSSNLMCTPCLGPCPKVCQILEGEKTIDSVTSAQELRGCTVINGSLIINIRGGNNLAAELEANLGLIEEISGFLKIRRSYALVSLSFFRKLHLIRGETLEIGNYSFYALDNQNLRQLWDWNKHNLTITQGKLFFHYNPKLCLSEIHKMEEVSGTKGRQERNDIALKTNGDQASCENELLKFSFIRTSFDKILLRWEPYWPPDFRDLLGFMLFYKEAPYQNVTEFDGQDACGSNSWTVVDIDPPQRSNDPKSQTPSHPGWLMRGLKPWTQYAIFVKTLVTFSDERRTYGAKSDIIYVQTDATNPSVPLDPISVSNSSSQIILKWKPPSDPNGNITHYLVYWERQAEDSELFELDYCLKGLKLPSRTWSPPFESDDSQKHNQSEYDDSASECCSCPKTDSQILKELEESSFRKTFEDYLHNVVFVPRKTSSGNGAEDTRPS
Insulin receptor, sequence (P15127 764-1383 limits assumed): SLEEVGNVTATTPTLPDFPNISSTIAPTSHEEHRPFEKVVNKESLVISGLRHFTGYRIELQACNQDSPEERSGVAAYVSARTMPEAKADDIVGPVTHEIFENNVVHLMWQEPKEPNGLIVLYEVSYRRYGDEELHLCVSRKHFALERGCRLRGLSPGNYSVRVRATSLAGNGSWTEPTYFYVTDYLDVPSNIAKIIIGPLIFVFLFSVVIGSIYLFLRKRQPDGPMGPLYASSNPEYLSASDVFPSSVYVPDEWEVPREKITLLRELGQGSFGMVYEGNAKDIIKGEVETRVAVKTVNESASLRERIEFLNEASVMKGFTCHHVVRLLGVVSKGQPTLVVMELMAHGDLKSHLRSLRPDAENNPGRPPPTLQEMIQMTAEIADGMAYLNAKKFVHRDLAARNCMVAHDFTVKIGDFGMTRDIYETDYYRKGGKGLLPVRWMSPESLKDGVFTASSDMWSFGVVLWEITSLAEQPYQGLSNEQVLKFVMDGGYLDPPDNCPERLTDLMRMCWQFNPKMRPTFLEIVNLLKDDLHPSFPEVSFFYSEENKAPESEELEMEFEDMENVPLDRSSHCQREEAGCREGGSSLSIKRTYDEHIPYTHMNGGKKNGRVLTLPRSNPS

[5] = DRUGMATRIX: Leukotriene, BLT (LTB4) radioligand binding (ligand: [3H]LTB4); format: cell membranes, Membrane; details: u-937; Not Active = under 50% inhibition at 10 µM
[6] = target: T3, Cysteinyl leukotriene receptor 1 (Homo sapiens, UniProt Q9Y271); format: cell membranes, Membrane; details: cho-k1; further: in other assays of this panel Not Active means under 50% inhibition at 10 µM
T3 sequence (Q9Y271 whole entry): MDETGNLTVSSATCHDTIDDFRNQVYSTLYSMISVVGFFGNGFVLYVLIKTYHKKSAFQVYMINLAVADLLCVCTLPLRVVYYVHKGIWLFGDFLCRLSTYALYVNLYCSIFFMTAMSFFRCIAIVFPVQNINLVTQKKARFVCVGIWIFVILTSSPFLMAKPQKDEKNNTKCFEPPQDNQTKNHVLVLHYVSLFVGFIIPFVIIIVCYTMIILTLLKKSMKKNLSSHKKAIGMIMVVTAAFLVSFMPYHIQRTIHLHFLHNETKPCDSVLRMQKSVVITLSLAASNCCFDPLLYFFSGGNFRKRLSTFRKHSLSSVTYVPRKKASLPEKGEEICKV

[7] = target: T4, Amine oxidase [flavin-containing] A (Homo sapiens, UniProt P21397); experiment: DRUGMATRIX: Monoamine Oxidase MAO-A enzyme inhibition (substrate: Kynuramine); design: species or system BTI-TN-5B1-4; details: bti-tn-5b1-4; Not Active = under 50% inhibition at 10 µM
T4 sequence (P21397 whole entry): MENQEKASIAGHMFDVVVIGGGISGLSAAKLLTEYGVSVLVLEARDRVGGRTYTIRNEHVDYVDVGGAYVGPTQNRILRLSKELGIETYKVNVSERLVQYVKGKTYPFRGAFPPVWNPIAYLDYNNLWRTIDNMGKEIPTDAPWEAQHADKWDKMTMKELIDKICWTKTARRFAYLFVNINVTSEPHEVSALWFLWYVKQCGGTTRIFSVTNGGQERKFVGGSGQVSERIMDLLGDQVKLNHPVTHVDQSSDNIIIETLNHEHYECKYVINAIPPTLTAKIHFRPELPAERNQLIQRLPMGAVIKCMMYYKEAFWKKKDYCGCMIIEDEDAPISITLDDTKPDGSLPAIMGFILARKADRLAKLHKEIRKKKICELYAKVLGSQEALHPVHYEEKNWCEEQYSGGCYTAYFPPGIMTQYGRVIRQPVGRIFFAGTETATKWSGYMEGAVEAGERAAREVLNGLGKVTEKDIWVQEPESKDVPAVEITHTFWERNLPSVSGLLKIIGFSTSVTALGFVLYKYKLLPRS

[8] = target: T5, Glucocorticoid receptor (Homo sapiens, UniProt P04150); details: hela s3; further: in other assays of this panel Not Active means under 50% inhibition at 10 µM
T5 sequence (P04150 whole entry): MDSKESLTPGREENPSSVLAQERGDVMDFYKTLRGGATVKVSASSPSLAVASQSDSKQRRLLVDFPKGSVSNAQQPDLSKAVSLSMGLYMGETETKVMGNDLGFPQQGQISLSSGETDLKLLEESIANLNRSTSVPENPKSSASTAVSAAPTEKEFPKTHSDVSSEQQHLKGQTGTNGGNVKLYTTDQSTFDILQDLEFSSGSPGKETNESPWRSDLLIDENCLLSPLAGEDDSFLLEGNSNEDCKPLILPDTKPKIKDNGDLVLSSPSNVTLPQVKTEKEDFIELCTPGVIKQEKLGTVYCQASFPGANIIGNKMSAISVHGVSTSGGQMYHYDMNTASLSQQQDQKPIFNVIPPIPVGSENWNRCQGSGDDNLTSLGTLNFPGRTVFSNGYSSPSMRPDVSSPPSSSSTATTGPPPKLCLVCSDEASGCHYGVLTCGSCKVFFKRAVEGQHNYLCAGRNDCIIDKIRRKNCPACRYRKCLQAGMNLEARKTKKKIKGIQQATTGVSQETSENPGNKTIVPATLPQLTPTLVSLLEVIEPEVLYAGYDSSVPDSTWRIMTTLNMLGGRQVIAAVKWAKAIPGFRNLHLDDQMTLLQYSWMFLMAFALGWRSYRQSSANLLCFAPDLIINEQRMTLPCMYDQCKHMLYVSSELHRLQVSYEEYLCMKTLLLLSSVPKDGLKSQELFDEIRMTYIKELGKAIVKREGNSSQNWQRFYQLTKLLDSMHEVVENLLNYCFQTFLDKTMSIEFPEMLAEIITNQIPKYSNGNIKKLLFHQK

CC(=O)Oc1ccccc1C(=O)O [ASPIRIN]
Not Active: IC50 [1] | IC50 [2] | IC50 [3] | IC50 [4] | IC50 [5] | Ki [5] | IC50 [6] | IC50 [7] | IC50 [8]

CC(C)c1c(C(=O)Nc2ccccc2)c(-c2ccccc2)c(-c2ccc(F)cc2)n1CC[C@@H](O)C[C@@H](O)CC(=O)O [ATORVASTATIN]
Not Active: IC50 [1] | IC50 [2] | IC50 [3] | IC50 [4] | IC50 [5] | Ki [5] | IC50 [6] | IC50 [7] | IC50 [8]

CC(=O)OC[C@H]1O[C@@H](n2ncc(=O)[nH]c2=O)[C@H](OC(C)=O)[C@@H]1OC(C)=O [AZARIBINE]
Not Active: IC50 [1] | IC50 [2] | IC50 [3] | IC50 [4] | IC50 [5] | Ki [5] | IC50 [6] | IC50 [7] | IC50 [8]

C[C@H]1[C@H](NC(=O)/C(=N\OC(C)(C)C(=O)O)c2csc(N)n2)C(=O)N1S(=O)(=O)O [AZTREONAM]
Not Active: IC50 [1] | IC50 [2] | IC50 [3] | IC50 [4] | IC50 [5] | Ki [5] | IC50 [6] | IC50 [7] | IC50 [8]

O=C(O)CCNC(=O)c1ccc(/N=N/c2ccc(O)c(C(=O)O)c2)cc1 [BALSALAZIDE]
Not Active: IC50 [1] | IC50 [2] | IC50 [3] | IC50 [4] | IC50 [5] | Ki [5] | IC50 [6] | IC50 [7] | IC50 [8]

COc1cc(OC)c(C(=O)CCCN2CCCC2)c(OC)c1 [BUFLOMEDIL]
Not Active: IC50 [1] | IC50 [2] | IC50 [3] | IC50 [4] | IC50 [5] | Ki [5] | IC50 [6] | IC50 [7] | IC50 [8]

Cn1c(=O)c2c(ncn2C)n(C)c1=O [CAFFEINE]
Not Active: IC50 [1] | IC50 [2] | IC50 [3] | IC50 [4] | IC50 [5] | Ki [5] | IC50 [6] | IC50 [7] | IC50 [8]

CO/N=C(\C(=O)N[C@@H]1C(=O)N2C(C(=O)O)=C(COC(C)=O)CS[C@H]12)c1csc(N)n1 [CEFOTAXIME]
Not Active: IC50 [1] | IC50 [2] | IC50 [3] | IC50 [4] | IC50 [5] | Ki [5] | IC50 [6] | IC50 [7] | IC50 [8]

CNC1=Nc2ccc(Cl)cc2C(c2ccccc2)=[N+]([O-])C1 [CHLORDIAZEPOXIDE]
Not Active: IC50 [1] | IC50 [2] | IC50 [3] | IC50 [4] | IC50 [5] | Ki [5] | IC50 [6] | IC50 [7] | IC50 [8]
